# Measured values reported in ChEMBL document CHEMBL5537113, “Discovery of 1,2-diaryl-3-oxopyrazolidin-4-carboxamides as a new class of MurA enzyme inhibitors and characterization of their antibacterial activity” (Eur J Med Chem, 2023).
# Activity calls are given as the source filed them. No cut-off for these calls is given here.
# Key:
# Escherichia coli = assay: Antibacterial activity against Escherichia coli harboring tolC deletion mutant assessed as reduction in microbial growth incubated for 16 hrs by serial dilution method; type: functional
# [1] = target: UDP-N-acetylglucosamine 1-carboxyvinyltransferase (Escherichia coli K-12) (UniProt P0A749); assay: Inhibition of Escherichia coli K12 His-tagged MurA expressed in Escherichia coli BL21 cells at 50 uM using UNAG as substrate pre incubated for 15 mins followed by substrate addition and measured after 15 mins by microplate reader analysis relative to control; conditions: time 30.0 min
# [2] = target: UDP-N-acetylglucosamine 1-carboxyvinyltransferase (Escherichia coli K-12, UniProt P0A749); assay: Inhibition of Escherichia coli K12 His-tagged MurA expressed in Escherichia coli BL21 cells using UNAG as substrate pre incubated for 15 mins followed by substrate addition and measured after 15 mins by microplate reader analysis
# [3] = Drug uptake in Escherichia coli harboring tolC deletion mutant at 10 uM incubated for 30 mins by LC analysis; type: ADME; conditions: 0.5 h
# [4] = Drug uptake in Escherichia coli harboring tolC deletion mutant assessed per 1.6x10^9 cells at 10 uM incubated for 30 mins by LC analysis; type: ADME; conditions: 0.5 h
# Staphylococcus aureus [5] = assay: Antibacterial activity against Staphylococcus aureus Newman D2C NCTC 10833 assessed as reduction in microbial growth incubated for 16 hrs by serial dilution method; type: functional
# Staphylococcus aureus [6] = assay: Antibacterial activity against methicillin sensitive Staphylococcus aureus NRS107 assessed as reduction in microbial growth by CLSI based broth microdilution method; type: functional
# Staphylococcus aureus [7] = assay: Antibacterial activity against methicillin resistant Staphylococcus aureus NRS119 assessed as reduction in microbial growth by CLSI based broth microdilution method; type: functional
# Staphylococcus aureus [8] = assay: Antibacterial activity against methicillin resistant Staphylococcus aureus USA300 assessed as reduction in microbial growth by CLSI based broth microdilution method; type: functional
# Staphylococcus aureus [9] = assay: Antibacterial activity against vancomycin resistant Staphylococcus aureus 10 assessed as reduction in microbial growth by CLSI based broth microdilution method; type: functional
# Streptococcus pneumoniae = assay: Antibacterial activity against Streptococcus pneumoniae ATCC 700677 assessed as reduction in microbial growth by CLSI based broth microdilution method; type: functional
# Enterococcus faecalis = assay: Antibacterial activity against Enterococcus faecalis ATCC 51299 assessed as reduction in microbial growth by CLSI based broth microdilution method; type: functional
# Clostridioides difficile [10] = assay: Antibacterial activity against Clostridioides difficile ATCC BAA1870 assessed as reduction in microbial growth incubated for 48 hrs by broth microdilution method; type: functional
# Clostridioides difficile [11] = assay: Antibacterial activity against Clostridioides difficile NR-32895 assessed as reduction in microbial growth incubated for 48 hrs by broth microdilution method; type: functional
# Clostridioides difficile [12] = assay: Antibacterial activity against Clostridioides difficile NR-32889 assessed as reduction in microbial growth incubated for 48 hrs by broth microdilution method; type: functional
# Clostridioides difficile [13] = assay: Antibacterial activity against Clostridioides difficile NR-32903 assessed as reduction in microbial growth incubated for 48 hrs by broth microdilution method; type: functional
# Clostridioides difficile [14] = assay: Antibacterial activity against Clostridioides difficile NR-32904 assessed as reduction in microbial growth incubated for 48 hrs by broth microdilution method; type: functional
# Clostridioides difficile [15] = assay: Antibacterial activity against Clostridioides difficile NR-13427 assessed as reduction in microbial growth incubated for 48 hrs by broth microdilution method; type: functional
# Clostridioides difficile [16] = assay: Antibacterial activity against Clostridioides difficile NR-13436 assessed as reduction in microbial growth incubated for 48 hrs by broth microdilution method; type: functional
# Clostridioides difficile [17] = assay: Antibacterial activity against Clostridioides difficile NR-49277 assessed as reduction in microbial growth incubated for 48 hrs by broth microdilution method; type: functional
# Clostridioides difficile [18] = assay: Antibacterial activity against Clostridioides difficile NR-49278 assessed as reduction in microbial growth incubated for 48 hrs by broth microdilution method; type: functional
# Clostridioides difficile [19] = assay: Antibacterial activity against Clostridioides difficile NR-49279 assessed as reduction in microbial growth incubated for 48 hrs by broth microdilution method; type: functional
# Clostridioides difficile [20] = assay: Antibacterial activity against Clostridioides difficile NR-49282 assessed as reduction in microbial growth incubated for 48 hrs by broth microdilution method; type: functional
# Clostridioides difficile [21] = assay: Antibacterial activity against Clostridioides difficile NR-49283 assessed as reduction in microbial growth incubated for 48 hrs by broth microdilution method; type: functional
# Clostridioides difficile [22] = assay: Antibacterial activity against Clostridioides difficile NR-49284 assessed as reduction in microbial growth incubated for 48 hrs by broth microdilution method; type: functional
# Clostridioides difficile [23] = assay: Antibacterial activity against Clostridioides difficile NR-49285 assessed as reduction in microbial growth incubated for 48 hrs by broth microdilution method; type: functional
# Clostridioides difficile [24] = assay: Antibacterial activity against Clostridioides difficile NR-49286 assessed as reduction in microbial growth incubated for 48 hrs by broth microdilution method; type: functional
# Clostridioides difficile [25] = assay: Antibacterial activity against Clostridioides difficile NR-49287 assessed as reduction in microbial growth incubated for 48 hrs by broth microdilution method; type: functional
# Clostridioides difficile [26] = assay: Antibacterial activity against Clostridioides difficile NR-49288 assessed as reduction in microbial growth incubated for 48 hrs by broth microdilution method; type: functional
# Clostridioides difficile [27] = assay: Antibacterial activity against Clostridioides difficile NR-49291 assessed as reduction in microbial growth incubated for 48 hrs by broth microdilution method; type: functional
# Clostridioides difficile [28] = assay: Antibacterial activity against Clostridioides difficile NR-49294 assessed as reduction in microbial growth incubated for 48 hrs by broth microdilution method; type: functional
# Clostridioides difficile [29] = assay: Antibacterial activity against Clostridioides difficile ATCC 43255 assessed as reduction in microbial growth incubated for 48 hrs by broth microdilution method; type: functional
# Clostridioides difficile [30] = assay: Antibacterial activity against Clostridioides difficile HM-88 assessed as reduction in microbial growth incubated for 48 hrs by broth microdilution method; type: functional
# Clostridioides difficile [31] = assay: Bactericidal activity against Clostridioides difficile NR-32895 assessed as reduction in microbial growth by broth microdilution method; type: functional
# Clostridioides difficile [32] = assay: Bactericidal activity against Clostridioides difficile NR-32904 assessed as reduction in microbial growth by broth microdilution method; type: functional
# Clostridioides difficile [33] = assay: Bactericidal activity against Clostridioides difficile NR-49278 assessed as reduction in microbial growth by broth microdilution method; type: functional
# Clostridioides difficile [34] = assay: Bactericidal activity against Clostridioides difficile NR-49284 assessed as reduction in microbial growth by broth microdilution method; type: functional
# Clostridioides difficile [35] = assay: Bactericidal activity against Clostridioides difficile ATCC BAA1870 assessed as reduction in microbial growth by broth microdilution method; type: functional
# Clostridioides difficile [36] = assay: Bactericidal activity against Clostridioides difficile ATCC 43255 assessed as reduction in microbial growth by broth microdilution method; type: functional
# Bacteroides fragilis [37] = assay: Antibacterial activity against Bacteroides fragilis HM 20 assessed as reduction in microbial growth incubated for 48 hrs by broth microdilution method; type: functional
# Bacteroides fragilis [38] = assay: Antibacterial activity against Bacteroides fragilis HM 709 assessed as reduction in microbial growth incubated for 48 hrs by broth microdilution method; type: functional
# Bacteroides fragilis [39] = assay: Antibacterial activity against Bacteroides fragilis HM 718 assessed as reduction in microbial growth incubated for 48 hrs by broth microdilution method; type: functional
# Bacteroides fragilis [40] = assay: Antibacterial activity against Bacteroides fragilis HM 719 assessed as reduction in microbial growth incubated for 48 hrs by broth microdilution method; type: functional
# Bifidobacterium breve [41] = assay: Antibacterial activity against Bifidobacterium breve HM 412 assessed as reduction in microbial growth incubated for 48 hrs by broth microdilution method; type: functional
# Bifidobacterium longum = assay: Antibacterial activity against Bifidobacterium longum HM 846 assessed as reduction in microbial growth incubated for 48 hrs by broth microdilution method; type: functional
# [42] = tested on: Bifidobacterium angulatum; assay: Antibacterial activity against Bifidobacterium angulatum HM 1189 assessed as reduction in microbial growth incubated for 48 hrs by broth microdilution method; type: functional
# Bifidobacterium breve [43] = assay: Antibacterial activity against Bifidobacterium breve HM1120 assessed as reduction in microbial growth incubated for 48 hrs by broth microdilution method; type: functional
# Lactobacillus gasseri [44] = assay: Antibacterial activity against Lactobacillus gasseri HM 403 assessed as reduction in microbial growth incubated for 48 hrs by broth microdilution method; type: functional
# Lactobacillus gasseri [45] = assay: Antibacterial activity against Lactobacillus gasseri HM 407 assessed as reduction in microbial growth incubated for 48 hrs by broth microdilution method; type: functional
# Lactobacillus crispatus [46] = assay: Antibacterial activity against Lactobacillus crispatus HM 103 assessed as reduction in microbial growth incubated for 48 hrs by broth microdilution method; type: functional
# Lactobacillus crispatus [47] = assay: Antibacterial activity against Lactobacillus crispatus HM 420 assessed as reduction in microbial growth incubated for 48 hrs by broth microdilution method; type: functional
# [48] = tested on: UDP-N-acetylglucosamine 1-carboxyvinyltransferase (Escherichia coli K-12), P0A749 [C115D]; assay: Inhibition of Escherichia coli MurA C115D mutant using UNAG as substrate pre incubated for 15 mins followed by substrate addition and measured after 15 mins by microplate reader analysis; conditions: time 30.0 min
# [49] = target: UDP-N-acetylglucosamine 1-carboxyvinyltransferase (Escherichia coli K-12, UniProt P0A749, C115D); assay: Inhibition of Escherichia coli MurA C115D mutant at 50 uM using UNAG as substrate pre incubated for 15 mins followed by substrate addition and measured after 15 mins by microplate reader analysis relative to control
# Bacteria = assay: Binding affinity to wild type U15-N labelled MurA (unknown origin) expressed in Escherichia coli at 200 uM using UNAG as substrate incubated for 90 to 150 mins by 15N-1H-HSQC NMR analysis; conditions: time 90-150 min
# Chain of UDP-N-acetylglucosamine 1-carboxyvinyltransferase (Escherichia coli K-12, UniProt P0A749) (P0A749 whole entry): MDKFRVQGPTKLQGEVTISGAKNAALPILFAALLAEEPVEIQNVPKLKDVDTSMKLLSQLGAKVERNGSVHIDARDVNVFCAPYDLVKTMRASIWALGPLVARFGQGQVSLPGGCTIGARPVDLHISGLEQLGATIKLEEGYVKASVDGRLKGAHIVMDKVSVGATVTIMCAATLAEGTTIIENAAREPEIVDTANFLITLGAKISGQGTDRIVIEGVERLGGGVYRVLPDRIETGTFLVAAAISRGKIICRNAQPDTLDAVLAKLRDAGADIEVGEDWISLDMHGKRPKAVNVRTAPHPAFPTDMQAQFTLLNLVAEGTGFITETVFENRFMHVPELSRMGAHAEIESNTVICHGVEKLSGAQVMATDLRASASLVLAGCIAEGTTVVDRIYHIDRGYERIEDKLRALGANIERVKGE
# Chain of UDP-N-acetylglucosamine 1-carboxyvinyltransferase (Escherichia coli K-12) (P0A749 whole entry): as above
# Chain of UDP-N-acetylglucosamine 1-carboxyvinyltransferase (Escherichia coli K-12, UniProt P0A749, C115D) (P0A749 whole entry C115D): as the sequence (P0A749 whole entry) above, with C115D counted along it
# Chain of UDP-N-acetylglucosamine 1-carboxyvinyltransferase (Escherichia coli K-12), P0A749 [C115D] (P0A749 whole entry C115D): as the sequence (P0A749 whole entry) above, with C115D counted along it
compound,measurement,setting,value
N#Cc1cnc(NC(=O)C2CN(c3cccc(Cl)c3)N(c3cccc(Cl)c3)C2=O)s1 (stereo not given),MIC,Escherichia coli,10 µM
same,inhibition,[1],70.8%
same,IC50,[2],10.9 µM
same,Drug uptake,[3],2560 nM
same,Drug uptake,[4],84 µM
same,MIC,Staphylococcus aureus [5],10 µM
same,MIC,Staphylococcus aureus [6],8 µg/mL
same,MIC,Staphylococcus aureus [7],16 µg/mL
same,MIC,Staphylococcus aureus [8],32 µg/mL
same,MIC,Staphylococcus aureus [9],8 µg/mL
same,MIC,Streptococcus pneumoniae,32 µg/mL
same,MIC,Enterococcus faecalis,> 64 µg/mL
same,MIC,Clostridioides difficile [10],32 µg/mL
CCc1c(Cl)c(O)c(Cl)c(O)c1C(=O)O[C@H]1[C@H](O)[C@H](OC)[C@H](OC/C2=C\C=C\C[C@H](O)/C(C)=C/[C@H](CC)[C@@H](O[C@@H]3OC(C)(C)[C@@H](OC(=O)C(C)C)[C@H](O)[C@@H]3O)/C(C)=C/C(C)=C/C[C@@H]([C@@H](C)O)OC2=O)O[C@@H]1C [FIDAXOMICIN],MIC,Clostridioides difficile [11],0.03 µg/mL
same,MIC,Clostridioides difficile [12],0.03 µg/mL
same,MIC,Clostridioides difficile [13],0.06 µg/mL
same,MIC,Clostridioides difficile [14],0.06 µg/mL
same,MIC,Clostridioides difficile [15],0.06 µg/mL
same,MIC,Clostridioides difficile [16],0.06 µg/mL
same,MIC,Clostridioides difficile [17],0.06 µg/mL
same,MIC,Clostridioides difficile [18],0.06 µg/mL
same,MIC,Clostridioides difficile [19],0.125 µg/mL
same,MIC,Clostridioides difficile [20],0.06 µg/mL
same,MIC,Clostridioides difficile [21],0.06 µg/mL
same,MIC,Clostridioides difficile [22],0.06 µg/mL
same,MIC,Clostridioides difficile [23],0.06 µg/mL
same,MIC,Clostridioides difficile [24],0.125 µg/mL
same,MIC,Clostridioides difficile [25],0.125 µg/mL
same,MIC,Clostridioides difficile [26],0.03 µg/mL
same,MIC,Clostridioides difficile [27],0.125 µg/mL
same,MIC,Clostridioides difficile [28],0.06 µg/mL
same,MIC,Clostridioides difficile [29],0.03 µg/mL
same,MIC,Clostridioides difficile [30],0.015 µg/mL
same,MBC,Clostridioides difficile [31],0.06 µg/mL
same,MBC,Clostridioides difficile [32],0.06 µg/mL
same,MBC,Clostridioides difficile [33],0.125 µg/mL
same,MBC,Clostridioides difficile [34],0.06 µg/mL
same,MBC,Clostridioides difficile [35],0.25 µg/mL
same,MBC,Clostridioides difficile [36],0.06 µg/mL
same,MIC,Bacteroides fragilis [37],> 64 µg/mL
same,MIC,Bacteroides fragilis [38],> 64 µg/mL
same,MIC,Bacteroides fragilis [39],> 64 µg/mL
same,MIC,Bacteroides fragilis [40],> 64 µg/mL
same,MIC,Bifidobacterium breve [41],≤ 0.06 µg/mL
same,MIC,Bifidobacterium longum,≤ 0.06 µg/mL
same,MIC,[42],≤ 0.06 µg/mL
same,MIC,Bifidobacterium breve [43],≤ 0.06 µg/mL
same,MIC,Lactobacillus gasseri [44],1 µg/mL
same,MIC,Lactobacillus gasseri [45],1 µg/mL
same,MIC,Lactobacillus crispatus [46],0.5 µg/mL
same,MIC,Lactobacillus crispatus [47],2 µg/mL
O=C1NC(=O)c2cc(NC(=O)C3CN(c4cccc(Cl)c4)N(c4cccc(Cl)c4)C3=O)ccc21 (stereo not given),MIC,Escherichia coli,17 µM
same,inhibition,[1],81.6%
same,IC50,[2],11.3 µM
same,inhibition,[48],74%
same,IC50,[49],12.7 µM
same,Drug uptake,[3],924 nM
same,Drug uptake,[4],30 µM
same,MIC,Staphylococcus aureus [5],> 40 µM
same,Activity,Bacteria,Active
